# Square brackets hold non-standard residues; d marks the D form. Peptide text beside a SMILES is read from it. * marks the point of attachment. Trp(1-Me) = Cn1cc(C[C@H](N)C(=O)O)c2ccccc21; Tic = O=C(O)[C@@H]1Cc2ccccc2CN1; pGlu = O=C1CC[CH](C(=O)O)N1; Hyp = O=C(O)[CH]1C[CH](O)CN1; Phg = N[CH](C(=O)O)c1ccccc1; ΔPro = O=C(O)[C@@H]1C=CCN1; Pip = O=C(O)[C@@H]1CCCCN1; αMeP = C[C]1(C(=O)O)CCCN1; Cbz = O=C(OCc1ccccc1)*; Aze = O=C(O)[CH]1CCN1; Boc = CC(C)(C)OC(=O)*
# Columns and labels:
# carraginine edema = test: anti-inflammatory effect, test of carraginine edema; format: in vivo; details: edema from carrageenin; dose not stated
# Source text: (§1) In the following examples will first of all be given the data necessary for synthesis of the compounds according to the present invention. There will then be given data regarding their pharmacological activity, using methods widely known to be valid. In particular, for the pressure tests, spontaneously hyper-tensive rats were used (SHR from the company Charles River), operated in such a way as to enable pressure to be read even when the animals were awake and free to move. In order to evaluate the analgesic activity, the Hot Plate and Writhing Tests were used. For the anti-inflammatory effect the test of carraginine edema was used. Finally, for immuno-modulating activity the evaluation of the stimulation of growth of human lymphocytes in culture was resorted to, after the addition of specific antigens. The results obtained for each synthesized compound are given at the end of each example.
# [1] = system: spontaneously hyper-tensive rats (SHR from the company Charles River); test: pressure tests in spontaneously hypertensive rats, awake and free to move; format: in vivo
# Source text: as §1, with “antigens.” for “antigens. The results obtained for each synthesized compound are given at the end of each example.”
# [2] = system: human lymphocytes in culture; test: immuno-modulating activity: stimulation of growth of human lymphocytes in culture after addition of specific antigens; format: cell-based; details: human lymphocytes in culture; antigen not stated
# Source text: as §1
# [3] = analgesic activity, test not given (Hot Plate and Writhing Tests were used); format: in vivo; details: test and dose not stated
# Source text: as §1
Structure (SMILES),anti-inflammatory effect (in words) (carraginine edema),immune response / immuno-stimulating activity (in words) [2],anti-hypertensive effect (in words) ([1]; dose not stated),also measured
"COC(=O)[C@H](Cc1c[nH]c2ccccc12)NC(=O)[C@H](CC(C)C)NC(=O)c1ccco1 [compound 8, 2-Fur-(L)-Leu-(L)-TrpOMe]",slight antiinflammatory effect,strongly stimulated even with small doses of peptide,–,anti-hypertensive effect (in words) ([1]; 4 mg/Kg i.v.): slight anti-hypertensive effect
"COC(=O)[C@@H]1Cc2ccccc2CN1C(=O)[C@H](CC(C)C)NC(=O)[C@@H]1CCC(=O)N1C(=O)OCc1ccccc1 [compound 21, Z-(L)-Pyr-(L)-Leu-(S)-CyPOMe]",–,good immuno-stimulating activity,slight anti-hypertensive activity,–
"COC(=O)[C@H](Cc1c[nH]c2ccccc12)NC(=O)[C@H](CC(C)C)NC(=O)c1ccc[nH]1 [compound 9, 2-Pyrrolyl-(L)-Leu-(L)-TrpOMe]",bland reduction of inflammatory responses,–,slight effect on pressure,–
"COC(=O)[C@@H]1Cc2ccccc2CN1C(=O)CNC(=O)[C@@H]1CCC(=O)N1 [compound 24, (L)-Pyr-Gly-(L)-CypOMe] ([pGlu]-Gly-[Tic]-OMe)",moderate anti-inflammatory action,–,bland anti-hypertensive action,–
"COC[C@H](Cc1ccccc1)NC(=O)[C@H](C)NC(=O)[C@@H]1CCCN1C(=O)OCc1ccccc1 [compound 6, Z-(L)-Pro-(L)-Ala-(L)-Pme]",rather weak,more consistent,–,"anti-hypertensive effect (in words) ([1]; 2 mg/Kg i.v.): good anti-hypertensive activity; reduction of pressure after one hour ([1]; 2 mg/Kg i.v., after one hour): approximately 25%; analgesic effect (in words) [3]: good analgesic activity"
"COC(=O)[C@H](Cc1c[nH]c2ccccc12)NC(=O)[C@H](CC(C)C)NC(=O)[C@@H]1CCCCN1C(=O)OCc1ccccc1 [compound 15, Z-(L)-Pip-(L)-Leu-(L)-TrPOMe] (Cbz-[Pip]-Leu-Trp-OMe)",consistent,slight increase in immune response,–,anti-hypertensive effect (in words) ([1]; 2 mg/Kg i.v.): good anti-hypertensive effect; reduction of pressure ([1]; 2 mg/Kg i.v.): up to 30%
"COC(=O)C(Cc1c[nH]c2ccccc12)NC(=O)C(CC(C)C)NC(=O)C1(C)CCCN1C(=O)OC(C)(C)C (stereo not drawn) [compound 12, Boc-(L)-Mep-(L)-Leu-(L)-TrpOMe] (Boc-[αMeP]-Leu-Trp-OMe; configuration not given here)",reduction of the inflammatory response,–,bland anti-hypertensive effect,–
"COC(=O)[C@@H]1Cc2ccccc2CN1C(=O)[C@H](C)NC(=O)[C@@H]1CCCN1C(=O)OCc1ccccc1 [compound 11, Z-(L)-Pro-(L)-Ala(L)-CypOMe] (Cbz-Pro-Ala-[Tic]-OMe)",moderate anti-inflammatory effect,–,slight anti-hypertensive effect,–
"COC[C@H](Cc1ccccc1)NC(=O)CNC(=O)[C@@H]1CCC(=O)N1 [compound 23, (L)-Pyr-Gly-(L)-Pme]",–,good immuno-stimulating effect,–,anti-hypertensive effect (in words) ([1]; 8 mg/Kg i.p.): good anti-hypertensive activity; analgesic effect (in words) [3]: excellent analgesic effect
"COC(=O)[C@H](Cc1c[nH]c2ccccc12)NC(=O)[C@H](CC(C)C)NC(=O)[C@@H]1Cc2ccccc2N1C(=O)OCc1ccccc1 [compound 14, Z-(S)-Dhi-(L)-Leu-(L)-TrpOMe]",–,–,bland reduction of pressure,analgesic effect (in words) [3]: moderate analgesic effect
"COC(=O)[C@H](Cc1c[nH]c2ccccc12)NC(=O)[C@H](CC(C)C)NC(=O)[C@@H]1CCC(=O)N1C(=O)OCc1ccccc1 [compound 19, Z-(L)-Pyr-(L)-Leu-(L)-TrpOMe]",fair anti-inflammatory activity,–,slight anti-hypertensive effect,–
"COC(=O)[C@H](Cc1cn(C)c2ccccc12)NC(=O)[C@H](C)NC(=O)[C@@H]1CCCN1C(=O)OCc1ccccc1 [compound 7, Z-(L)-Pro-(L)-Ala-(1)-Me-(L)-TrpOMe] (Cbz-Pro-Ala-[Trp(1-Me)]-OMe)",–,–,–,anti-hypertensive effect (in words) ([1]; 2 mg/Kg i.v.): good anti-hypertensive effect; reduction of pressure ([1]; 2 mg/Kg i.v.): 10%
"C[C@H](NC(=O)[C@@H]1CCCN1C(=O)OCc1ccccc1)C(=O)N1CCc2c([nH]c3ccccc23)C1 [compound 3, Z-(L)-Pro-(L)-Ala-CytH]",–,–,–,anti-hypertensive effect (in words) ([1]; 8 mg/Kg i.p.): bland anti-hypertensive effect
"COC(=O)[C@H](Cc1c[nH]c2ccccc12)NC(=O)[C@H](CC(C)C)NC(=O)[C@@H]1C=CCN1C(=O)OC(C)(C)C [compound 13, Boc-.gradient.^3,4 -(L)-Pro-(L)-Leu-(L)-TrpOMe] (Boc-[ΔPro]-Leu-Trp-OMe)",–,slightly increases the immune response,slightly anti-hypertensive,–
"COC(=O)[C@H](Cc1ccc(OC)cc1)NC(=O)[C@H](C)NC(=O)[C@@H]1CCCN1C(=O)OCc1ccccc1 [compound 4, Z-(L)-Pro-(L)-Ala-(L)-OmtOMe] (Cbz-Pro-Ala-Tyr(Me)-OMe)",–,slightly increased,–,anti-hypertensive effect (in words) ([1]; 8 mg/Kg i.v.): bland anti-hypertensive effect
"COC(=O)[C@H](Cc1c[nH]c2ccccc12)NC(=O)[C@H](CC(C)C)NC(=O)[C@@H]1CCCO1 [compound 18, (S)-Tfc-(L)-Leu-(L)-TrpOMe]",–,stimulates the immune response in a moderate manner,bland anti-hypertensive effect,–
"C[C@H](NC(=O)[C@@H]1CCCN1C(=O)OCc1ccccc1)C(=O)NCCc1c[nH]c2ccccc12 [compound 2, Z-(L)-Pro-(L)-Ala-TrpH]",–,"increased, but to a lesser extent than in the previous compound",comparable to that of compound 1,–
"COC(=O)C(Cc1c[nH]c2ccccc12)NC(=O)C(CC(C)C)NC(=O)C1CC(O)CN1C(=O)OCc1ccccc1 (stereo not drawn) [compound 16, Z-(L)-Hyp-(L)-Leu-(L)-TrpOMe] (Cbz-[Hyp]-Leu-Trp-OMe; configuration not given here)",–,–,bland anti-hypertensive action,analgesic effect (in words) [3]: modest analgesic effect
"COC(=O)C(Cc1c[nH]c2ccccc12)NC(=O)C(CC(C)C)NC(=O)C1CCCN1C.Cl (centres unmarked) [compound 10, N-Me-(L)-Pro-(L)-Leu-(L)-TrpOMe.HCl]",–,slightly increased,–,anti-hypertensive effect (in words) ([1]; 2 mg/Kg i.v.): excellent anti-hypertensive effect; reduction of pressure ([1]; 2 mg/Kg i.v.): 15-20%; analgesic effect (in words) [3]: low analgesic effect
"COC(=O)C(NC(=O)CNC(=O)C1CCC(=O)N1)c1ccccc1 (stereo not drawn) [compound 22, (L)-Pyr-Gly-(L)-PhgOMe] ([pGlu]-Gly-[Phg]-OMe; configuration not given here)",very good,appears to increase the immune response,–,anti-hypertensive effect (in words) ([1]; 4 mg/Kg i.p.): excellent anti-hypertensive activity; reduction of pressure values ([1]; 4 mg/Kg i.p.): 20%
"COC(=O)C(Cc1c[nH]c2ccccc12)NC(=O)C(CC(C)C)NC(=O)C1CCN1C(=O)OCc1ccccc1 [compound 17, Z-(S)-Aze-(L)-Leu-(L)-TrpOMe] (Cbz-[Aze]-Leu-Trp-OMe; configuration not given here)",bland anti-inflammatory activity,–,slight anti-hypertensive effect,–
"COC(=O)[C@@H]1Cc2c([nH]c3ccccc23)CN1C(=O)[C@H](CC(C)C)NC(=O)[C@@H]1CCC(=O)N1 [compound 25, (L)-Pyr-(L)-Leu-(S)-CytOMe]",–,–,bland anti-hypertensive effect,analgesic effect (in words) [3]: weak analgesic activity
"COC(=O)[C@@H]1Cc2c([nH]c3ccccc23)CN1C(=O)[C@H](CC(C)C)NC(=O)[C@@H]1CCC(=O)N1C(=O)OCc1ccccc1 [compound 20, Z-(L)-Pyr-(L)-Leu-(S)-CytOMe]",fair anti-inflammatory activity,–,bland anti-hypertensive activity,–

# — patent publication US5736518A, “Peptide compounds of (L) amino acids and ring molecules, and therapeutical applications thereof” (Polifarma S.p.A., priority 1990, dated 1998)
